The results in this text go back to patent US20010006969A1, “PYRIMIDINE NUCLEUS-CONTAINING COMPOUND AND A MEDICAMENT CONTAINING THE SAME FOR A BLOOD OXYGEN PARTIAL PRESSURE AMELIORATION, AND A METHOD FOR PREPARING THE SAME” (priority 1997, published 2001).

SMILES strings stand for the structures.

In one data set the test system is hypoxemic model rats. The experiment in a line: Determination of oxygen partial pressure increasing action (arterial blood PaO2 gain in hypoxemic model rats). The data set is classed as in vivo, Sprague-Dawley male rats. The following applies: urethane-anesthetized rats, i.v. continuously 0.1 mg/kg/min, PaO2 measured 10 minutes after completion of administration, gain before vs after. On the procedure: Determination of oxygen partial pressure increasing action
Actions of the quinazoline derivatives of the present invention to increase oxygen partial pressure in the arterial blood were determined according to the following method:
Sprague-Dawley male rats having body weights of about 250 g were anesthetized (i.p.) with urethane and cannulated to the respiratory tracts, femoral arteries and femoral veins. An olive oil-charcoal powder suspension (10 mg/ml) was introduced in an amount of 0.8 ml/kg through the respiratory tract cannulae into the lungs to cause the rats to hypoxic state (PaO2≦75 mmHg). The quinazoline derivatives listed in Table 1 were intravenously administered to these hypoxemic model rats continuously at a rate of 0.1 mg/kg/min, and arterial blood oxygen partial pressure value (PaO2) of each rat was measured at the time point of 10 minutes after completion of administration using a blood gas analyzer (Ciba Corning 800 series). Gains (APaO2) were determined based on results of PaO2 measurement made before and after administration of the test compounds.
Actions of the thienopyrimidine derivatives of the present invention to increase oxygen partial pressure in the arterial blood were determined according to the following method:
Sprague-Dawley male rats having body weights of about 250 g were anesthetized (i.p.) with urethane and cannulated to the respiratory tracts, femoral arteries and femoral veins. An olive oil-charcoal powder suspension (10 mg/ml) was introduced in an amount of 0.8 ml/kg through the respiratory tract cannulae into the lungs to cause the rats to be under hypoxic state (PaO2 Δ 75 mmHg). The thienopyrimidine derivatives listed in Table 2 were intravenously administered to these hypoxemic model rats continuously at a rate of 0.1 mg/kg/min, and arterial blood oxygen partial pressure value (PaO2) of each rat was measured at the time point of 10 minutes after completion of administration using a blood gas analyzer (Ciba Corning 800 series). Gains (ΔPaO2) were determined based on results of PaO2 measurement made before and after administration of the test compounds.

Where [1] appears, read: quinazoline derivatives, hypoxic state (PaO2≦75 mmHg) by olive oil-charcoal powder suspension.
[2] abbreviates: thienopyrimidine derivatives, hypoxic state (PaO2 Δ 75 mmHg) by olive oil-charcoal powder suspension.

Usually melting point stands for the temperature, or range, at which the solid turns liquid.

`C=CCNc1nc(NCc2ccccc2)nc2ccc([N+](=O)[O-])cc12` [Example 6, 4-Allylamino-2-benzylamino-6-nitroquinazoline] gave a melting point of 216 to 217 °C. Moreover, the ΔPaO2 in the data set with hypoxemic model rats (setting [1]) was 48 mmHg.
In turn, `C=CCNc1nc(NC2CCCCC2)nc2ccc([N+](=O)[O-])cc12` [Example 7, 4-Allylamino-2-cyclohexylamino-6-nitroquinazoline] gave a melting point of 183 to 184 °C. This molecule showed a ΔPaO2 with hypoxemic model rats (setting [1]) of 35 mmHg.
For `C=CCNc1nc(NCCC)c2cc([N+](=O)[O-])ccc2n1` [Example 10, 2-Allylamino-6-nitro-4-propylaminoquinazoline], in that order: 211 to 212 °C and 34 mmHg.
For `C=CCNc1nc(NC(C)C)nc2ccc([N+](=O)[O-])cc12` [Example 18, 4-Allylamino-2-isopropylamino-6-nitroquinazoline], in that order: 150 to 151 °C and 30 mmHg.
Taken in the same sequence, the figures for `C=CCNc1nc(NC)c2cc([N+](=O)[O-])ccc2n1` [Example 21, 2-Allylamino-4-methylamino-6-nitroquinazoline] were 211 to 212 °C and 26 mmHg.
`C=CCNc1nc(NCC)c2cc([N+](=O)[O-])ccc2n1` [Example 22, 2-Allylamino-4-ethylamino-6-nitroquinazoline] displayed a melting point of 215 to 216 °C. In the data set on hypoxemic model rats (setting [1]), the ΔPaO2 is 27 mmHg.
For `C=CCNc1nc(NCCOCCC)c2cc([N+](=O)[O-])ccc2n1` [Example 39, 2-Allylamino-6-nitro-4-(2-propoxyethylamino)quinazoline], in that order: 156 to 157 °C and 30 mmHg.
For `CCCCNc1nc(NCC=C(C)C)c2cc([N+](=O)[O-])ccc2n1` [Example 60, 2-Butylamino-4-(3-methyl-2-butenylamino)-6-nitroquinazoline], the melting point is 171 to 172 °C. Besides, in the data set on hypoxemic model rats (setting [1]), the ΔPaO2 is listed as 27 mmHg.
`C=CCNc1nc(NCC=C)c2scc(C)c2n1` [Example 66, 2,4-Diallylamino-7-methylthieno[3,2-d]pyrimidine] registered a melting point of 77 to 80 °C. In addition, in the data set with hypoxemic model rats (setting [2]), the ΔPaO2 worked out at 26 mmHg.
Take `C=CCNc1nc(NC(C)(C)C)c2scc(C)c2n1` [Example 68, 2-Allylamino-4-t-butylamino-7-methylthieno[3,2-d] pyrimidine]: the melting point lay within 89 to 90 °C. The ΔPaO2 with hypoxemic model rats (setting [2]) is on record as 31 mmHg.
For `C=CCNc1nc(NCC)c2scc(C)c2n1` [Example 76, 2-Allylamino-4-ethylamino-7-methylthieno[3,2-d]pyrimidine], the melting point was in the range of 96 to 97 °C. In addition, the ΔPaO2 in the data set on hypoxemic model rats (setting [2]) is 33 mmHg.
On to `C=CCNc1nc(NC23CC4CC(CC(C4)C2)C3)c2scc(C)c2n1` [Example 79, 4-(1-Adamantylamino)-2-allylamino-7-methylthieno[3,2-d] pyrimidine], for which the melting point fell in the range of 107 to 109 °C. Moreover, in the data set on hypoxemic model rats (setting [2]), the ΔPaO2 is recorded as 36 mmHg.
Taken in the same sequence, the figures for `C=CCNc1nc(NCCCCCCCCC)c2scc(C)c2n1` [Example 80, 2-Allylamino-4-nonylamino-7-methylthieno[3,2-d]pyrimidine] were 65 to 66 °C and 28 mmHg.
As for `C=CCNc1nc(NCCCC)c2scc(C)c2n1` [Example 81, 2-Allylamino-4-butylamino-7-methylthieno[3,2-d]pyrimidine], the melting point fell in the range of 68 to 70 °C. In the data set with hypoxemic model rats (setting [2]), the ΔPaO2 stood at 29 mmHg.
For `C=CCNc1nc(NC(C)CC)c2scc(C)c2n1` (centres unmarked) [Example 84, 2-Allylamino-7-methyl-4-(1-methylpropylamino)thieno[3,2-d] pyrimidine], in that order: 91 to 92 °C and 27 mmHg.
`C=CCNc1nc(NCC=C)c2scc(CC)c2n1` [Example 103, 2,4-Diallylamino-7-ethylthieno[3,2-d]pyrimidine] displayed a melting point of 55 °C. Further, the ΔPaO2 in the data set with hypoxemic model rats (setting [2]) is reported as 30 mmHg.
